Where “and” joins values, the source holds several entries; their conditions need not be identical. Equal values may be shown once.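 Interpolation was linear, between the two tested concentrations surrounding the appropriate level; five concentrations were tested over 48 hours in 96-well plates. Here, GI50 denotes the concentration required for 50% inhibition of growth. The concentration for full growth arrest is given as TGI.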
Experiments:
Test in all cases: inhibition of tumour cell growth, NCI panel, 48 h
COLO 205 colon = tested on: COLO 205 colon
HCC-2998 colon = tested on: HCC-2998 colon
HCT-15 colon = tested on: HCT-15 colon
MALME-3M melanoma = tested on: MALME-3M melanoma
NCI/ADR-RES ovarian = tested on: NCI/ADR-RES ovarian
OVCAR-8 ovarian = tested on: OVCAR-8 ovarian
RPMI-8226 leukemia = tested on: RPMI-8226 leukemia
SK-MEL-2 melanoma = tested on: SK-MEL-2 melanoma
SW-620 colon = tested on: SW-620 colon
U251 CNS = tested on: U251 CNS

| SMILES | GI50 (COLO 205 colon) [µM] | TGI (COLO 205 colon) [µM] | GI50 (HCC-2998 colon) [µM] | TGI (HCC-2998 colon) | GI50 (HCT-15 colon) [µM] | TGI (HCT-15 colon) [µM] | GI50 (MALME-3M melanoma) [µM] | TGI (MALME-3M melanoma) | GI50 (NCI/ADR-RES ovarian) [µM] | TGI (NCI/ADR-RES ovarian) [µM] | GI50 (OVCAR-8 ovarian) [µM] | TGI (OVCAR-8 ovarian) | GI50 (RPMI-8226 leukemia) [µM] | TGI (RPMI-8226 leukemia) [µM] | GI50 (SK-MEL-2 melanoma) [µM] | TGI (SK-MEL-2 melanoma) | GI50 (SW-620 colon) [µM] | TGI (SW-620 colon) [µM] | GI50 (U251 CNS) | TGI (U251 CNS) |
| --- | --- | --- | --- | --- | --- | --- | --- | --- | --- | --- | --- | --- | --- | --- | --- | --- | --- | --- | --- | --- |
| CCN(C(=O)CCl)C(C)(C)C(SSSC(c1ccc(Cl)cc1)C(C)(C)N(CC)C(=O)CCl)c1ccc(Cl)cc1 (centres undefined) | 7.21 | 24.8 | 11.1 | 26.6 µM | 2.84 | 12.8 | 2.21 | 3.97 µM | 8.31 | 24 | 10.9 | 24.1 µM | 3.99 | 18.2 | 6.14 | 18.7 µM | 3.85 | 14.6 | 4.72 µM | 17.7 µM |
| ICCC(c1ccccc1)(c1ccccc1)c1ccccc1 | 2.02 | 3.85 | 8.41 | 27.6 µM | 3.56 | 15.5 | 1.9 | 3.6 µM | 11.1 | 29.5 | 11.4 | 25.5 µM | 3.72 | 17.1 | 4.18 | 13.7 µM | – | – | 3.48 µM | 11.3 µM |
| COc1cc2ccnc3c2c(c1OC)-c1ccc(=O)ccc1-3 | 35.2 | 97.8 | 32.1 | > 100 µM | 22.5 | 77.1 | 37.9 | 75.5 µM | 17.4 | 57.6 | 13.4 | 58.8 µM | 18.4 | 51.9 | 52.6 | > 100 µM | 13.9 | > 100 | 27.6 µM | 96.9 µM |
| Nc1c(C(=O)c2cccc(C#CCN3CCOCC3)c2)cnn1-c1ccc(F)cc1 | 7.97 | > 25 | > 25 | > 25 µM | 11.2 | > 25 | > 12.4 | > 25 µM | 8.23 | > 25 | > 25 | > 25 µM | > 20.8 | > 25 | > 15.3 | > 25 µM | 9.28 | > 25 | > 21 µM | > 25 µM |
| O=C(O)c1ccc(NCc2nc3cc4ccccc4cc3[nH]2)cc1 | – | > 100 | – | > 100 µM | – | > 100 | – | 0.237 µM | – | > 100 | – | > 100 µM | – | > 100 | – | > 86.3 µM | – | > 100 | – | > 100 µM |
| C[C@]12CCC3c4ccc(O)cc4CCC3C1Cc1ccc(O)cc12 (some centres undefined) | 12.1 | 26 | 5.44 | 18.4 µM | 4.51 | 19 | 10.8 | 29.1 µM | 2.35 | 6.74 | 15.8 | 33.8 µM | 3.75 | 18 | 11 | 26.3 µM | 3.7 | 14.9 | 5.24 µM | 17.4 µM |
| N#CSCc1c(Cl)cccc1Cl | 2.34 | 4.97 | 4.19 | 45.2 µM | 2.96 | > 100 | 8.71 | > 100 µM | 6.25 | > 100 | 4.8 | > 100 µM | < 0.0506 | 1.33 | 4.02 | > 100 µM | 0.76 | > 46.3 | 3.83 µM | > 100 µM |
| CN1CCN(Cc2ccc(NC(=O)c3nc4ccc5[nH]ncc5c4c4c3CCC4)cc2C(F)(F)F)CC1 | 7.27 | 14.7 | 0.83 | 1.65 µM | 0.87 | 1.75 | 0.8 | 1.52 µM | 0.931 | 2.14 | 1.05 | 2.22 µM | 1.14 | 2.82 | 1.16 | 2.49 µM | 0.975 | 2.03 | 0.875 µM | 1.6 µM |
| O=C(OCC1OC(OC(=O)c2cc(O)c(O)c(OC(=O)c3cc(O)c(O)c(O)c3)c2)C(OC(=O)c2cc(O)c(O)c(OC(=O)c3cc(O)c(O)c(O)c3)c2)C(OC(=O)c2cc(O)c(O)c(OC(=O)c3cc(O)c(O)c(O)c3)c2)C1OC(=O)c1cc(O)c(O)c(OC(=O)c2cc(O)c(O)c(O)c2)c1)c1cc(O)c(O)c(OC(=O)c2cc(O)c(O)c(O)c2)c1 (centres undefined) | 14.5 | > 50 | 11.2 | 46 µM | 9.73 | > 50 | – | – | 19.2 | > 50 | 25.6 | > 50 µM | 20.8 | > 50 | 20.6 | > 50 µM | 21.6 | > 50 | 14.6 µM | > 50 µM |
| O=C(NNc1ccccc1)OCc1ccccc1 | 17 | 46.4 | 17.6 | > 100 µM | 4.98 | > 100 | 20.1 | 96.6 µM | 21.1 | > 100 | 11.2 | > 100 µM | 17.3 | > 100 | 15.7 | > 100 µM | 2.14 | > 100 | 70.6 µM | > 100 µM |
| c1ccc(-c2nnc(Nc3ccc4c(c3)OCCO4)o2)c(NCc2ccncc2)c1 | 0.0286 | 0.076 | 0.0296 | 1.35 µM | 0.0369 | > 100 | 0.68 | > 67.3 µM | 0.0162 | > 51.3 | 0.0419 | > 42.2 µM | 0.0445 | 7.63 | 0.16 | 22.3 µM | 0.0255 | > 100 | 0.0369 µM | > 35.5 µM |
| C/C(=N\NC(=O)c1ccccc1O)c1cccc(/C(C)=N/NC(=O)c2ccccc2O)n1 | – | > 100 | 0.489 | 11.5 µM and > 58.9 µM | 0.568 | > 100 | 0.522 | 43.9 µM and > 100 µM | > 100 | > 100 | 0.571 | 51.6 µM and > 100 µM | > 100 | > 100 | – | 38.9 µM and > 100 µM | 0.632 | > 100 | 2.02 µM and 0.502 µM | 15.8 µM and > 100 µM |
